From publication PMC9135253, “Potential of phenothiazines to synergistically block calmodulin and reactivate PP2A in cancer cells” (PLoS ONE, 2022)
Where “and” joins values, the source holds several entries; their conditions need not be identical. Equal values may be shown once. Read-outs that look alike come from different tables or passages of the source.

Key:
Assay type in all cases: cell-based
HEK-293 EBNA cells = test: 2D cell viability assay (alamarBlue), HEK-293 EBNA; settings: 72 h
MDA-MB-231 cells [1] = test: 2D cell viability assay (alamarBlue), MDA-MB-231; settings: MDA-MB-231, 72 h
MIA PaCa-2 cells = test: 2D cell viability assay (alamarBlue), MIA PaCa-2; settings: MIA PaCa-2, 72 h
[2] = tested on: pERK/ERK in MIA PaCa-2 cells; test: Western blot of MAPK signaling output (pERK/ERK); settings: for potency relative to Flu-M in MAPK-signaling (pERK) inhibition: MIA PaCa-2; for normalized pERK/ERK ratio %: MIA PaCa-2 + EGF
[3] = tested on: NCI-H358 (KRAS-G12C) 3D spheroids; test: 3D spheroid formation assay (alamarBlue), NCI-H358
Procedure: (§1) 3D spheroid formation assays were performed in 96-well low-attachment, suspension culture plates (cat. no. 655185, Cellstar, Greiner Bio-One) under serum free conditions. About 1000 cells per well were seeded in 50 μL RPMI medium (cat. no. 52400–025, Gibco, ThermoFisher Scientific) containing 0.5% (v/v) MethoCult (cat. no. SF H4636, Stemcell technologies), 1X B27 (cat. no. 17504044, Gibco, ThermoFisher Scientific), 25 ng/mL EGF (cat. no. E9644, Sigma-Aldrich) and 25 ng/ mL FGF (cat. no. RP-8628, ThermoFisher Scientific). Cells were cultured for 3 days and then treated with compounds or vehicle control (DMSO 0.1% (v/v) in growth medium) for another 3 days. The cells were supplemented with fresh growth medium on the third day together with the drug treatment. Spheroid formation efficiency was analyzed by alamarBlue assay reagent (cat. no. DAL1100, ThermoFisher Scientific).
(§2) A 10% (v/v) final volume of alamarBlue reagent was added to each well of the plate and incubated for 4 h at 37°C. Then the fluorescence intensity (λexcitation 560 ± 5 nm and λemission 590 ± 5 nm) was measured using the FLUOstar OPTIMA plate reader (BMG Labtech, Germany).
(§3) (A) Heatmap of ATARiS gene sensitivity scores of two KRAS dependent cell lines (NCI-H358 and MDA-MB-231) and a BRAF dependent cell line (A375). Negative values (shaded red) indicate sensitivity of the cell line proliferation to the knockdown of shown genes, whereas positive scores (shaded blue) indicate insensitivity. (B) IC50 values for indicated compounds in Ras pathway mutant cell lines NCI-H358, MDA-MB231 and A375 grown as 3D spheroids under serum free conditions. […] Statistical comparisons were done using the average values across all three cell lines. […] Positive scores indicate synergistic drug interactions whereas negative scores would denote antagonistic drug interactions. A score of zero would indicate no antagonistic or synergistic effect. (D) Flow cytometric analysis of apoptosis in MDA-MB-231 cells. […] Benzethonium chloride and DMSO treated cells were used as positive and negative controls, respectively, for setting the gates. Percentage of total apoptotic cells (early and late stage) from two biological repeats (mean ± SD) is presented. Statistical analysis was performed using Fisher’s exact test comparing the total number of viable and apoptotic cells from two biological repeats. (E) Effect of inhibitors on cellular apoptosis studied using Caspase-3/7Glo assay. […] The caspase-3/7 activity was measured as a luminescence read-out and normalized to the vehicle control, 0.05% (v/v) DMSO. […] GAPDH detection was used as loading control.

[4] = tested on: MDA-MB-231 (KRAS-G13D) 3D spheroids; test: 3D spheroid formation assay (alamarBlue), MDA-MB-231
Procedure: as §1, §2, §3

[5] = tested on: A375 (BRAF-V600E) 3D spheroids; test: 3D spheroid formation assay (alamarBlue), A375
Procedure: as §1, §2, §3

[6] = tested on: H-RasG12V (Rluc8-/GFP2-tagged) in HEK-293 EBNA cells; test: H-RasG12V nanoclustering-BRET assay; settings: for H-RasG12V BRET: compounds 20 μM, FTI-277 1 μM, OphA 2.5 μM, 24 h
[7] = tested on: K-RasG12V (Rluc8-/GFP2-tagged) in HEK-293 EBNA cells; test: K-RasG12V nanoclustering-BRET assay; settings: for K-RasG12V BRET: compounds 20 μM, FTI-277 1 μM, OphA 2.5 μM, 24 h
MDA-MB-231 cells [8] = test: Flow cytometry-based apoptosis assay (Annexin V-FITC / 7-AAD); settings: DT-061 10 μM, calmidazolium 5 μM or combination, 24 h
Procedure: MDA-MB-231 cells were grown for 24 h in complete RPMI medium. The next day the cells were treated with inhibitors for 24 h. […] The cells were labelled using the Annexin V-FITC / 7-AAD apoptosis-detection kit (Beckman-Coulter, cat. no. B60224-AB) according to the manufacturer’s instruction.
as §3, with “Negative” for “(A) Heatmap of ATARiS gene sensitivity scores of two KRAS dependent cell lines (NCI-H358 and MDA-MB-231) and a BRAF dependent cell line (A375). Negative”

[9] = 2 h, trametinib 1 μM, AMG-510 1 μM, calmidazolium 20 μM, DT-061 20 μM, combination each 10 μM, fluphenazine mustard 20 μM, replicates N1-N3
[10] = Homo sapiens, A-375, 72 h, A375 3D spheroids, serum free, 3 days treatment, replicates N1, N2
[11] = Homo sapiens, A-375, A375 3D spheroids, Mean, n = 2
[12] = A/D plasmid ratio 4/1, individual replicates N1.1-N2.4
[13] = A/D plasmid ratio 4/1, individual replicates N1.1-N3.4
[14] = early and late stage, replicates N1, N2
[15] = Homo sapiens, NCI-H358, NCI-H358 3D spheroids, Mean, n = 2, read-out: IC50 values
[16] = NCI-H358 3D spheroids, serum free, 3 days treatment, replicates N1, N2, read-out: IC50 values
[17] = H-RasG12V nanoclustering-BRET dose response (0.1–80 μM; OphA 0.3–20 μM), replicates
[18] = H-RasG12V nanoclustering-BRET, mean
[19] = Homo sapiens, MDA-MB-231, MDA-MB-231 3D spheroids, Mean, n = 2, read-out: IC50 values
[20] = MDA-MB-231 3D spheroids, serum free, 3 days treatment, replicates N1, N2, read-out: IC50 values
[21] = A375 3D spheroids, serum free, 3 days treatment, replicates N1, N2
[22] = K-RasG12V nanoclustering-BRET dose response (0.1–80 μM; OphA 0.3–20 μM), replicates
[23] = K-RasG12V nanoclustering-BRET, mean

C=CC(=O)N1CCN(c2nc(=O)n(-c3c(C)ccnc3C(C)C)c3nc(-c4c(O)cccc4F)c(F)cc23)[C@@H](C)C1 [AMG-510]
2D monolayer DSS3 (HEK-293 EBNA cells; Mean): 15.93
2D monolayer DSS3 (HEK-293 EBNA cells; replicates N1-N3): 22.8 and 12.8 and 12.2
2D monolayer DSS3 (MDA-MB-231 cells [1]; Mean): 4.2
2D monolayer DSS3 (MDA-MB-231 cells [1]; replicates N1-N3): 1.7 and 3 and 7.9
2D monolayer DSS3 (MIA PaCa-2 cells; Mean): 64.97
2D monolayer DSS3 (MIA PaCa-2 cells; replicates N1-N3): 62.6 and 65 and 67.3
potency relative to Flu-M in MAPK-signaling (pERK) inhibition [2]: at least 20 times
normalized pERK/ERK ratio % [2, 9]: 29.0898% and 30.5706% and 27.2049%
normalized pERK/ERK ratio % ([2]; same treatments, mean): 28.96%

C=CC(=O)N1CCN(c2ncnc3c(F)c(-c4c(O)cccc4F)c(Cl)cc23)CC1 [ARS-1620]
IC50 ([3]; Homo sapiens, NCI-H358, 72 h, read-out: IC50 values, NCI-H358 3D spheroids, serum free, 3 days treatment, replicates N1, N2): 600 nM
IC50 ([3]; Homo sapiens, NCI-H358, read-out: IC50 values, NCI-H358 3D spheroids, Mean, n = 2): 460 nM
IC50 ([3]; read-out: IC50 values, NCI-H358 3D spheroids, serum free, 3 days treatment, replicates N1, N2): 320 nM
IC50 ([4]; Homo sapiens, MDA-MB-231, 72 h, read-out: IC50 values): > 40000 nM
IC50 ([4]; Homo sapiens, MDA-MB-231, read-out: IC50 values): > 40000 nM
IC50 [5, 10]: > 40000 nM
IC50 [5, 11]: > 40000 nM

COC(=O)[C@H](CCSC)NC(=O)c1ccc(NC[C@@H](N)CS)cc1-c1ccccc1 [FTI-277]
H-RasG12V BRET [6, 12]: 55.9675 and 54.6788 and 57.991 and 55.5016 and 58.8518 and 57.6476 and 60.7427 and 58.4164
H-RasG12V BRET ([6]; mean): 57.47
K-RasG12V BRET [7, 13]: 72.2368 and 88.8749 and 88.6228 and 90.7219 and 73.1065 and 73.006 and 71.9005 and 74.3032 and 75.1082 and 75.0152 and 73.992 and 87.4754
K-RasG12V BRET ([7]; mean): 78.7

CC(C)(C)CC(C)(C)c1ccc(OCCOCC[N+](C)(C)Cc2ccccc2)cc1 [benzethonium Cl, Benzethonium chloride]
apoptotic cells (%) (MDA-MB-231 cells [8]; [14]): 93.0493% and 96.0998%
apoptotic cells (%) (MDA-MB-231 cells [8]; mean): 94.57%

Clc1ccc(C(c2ccc(Cl)cc2)n2cc[n+](CC(OCc3ccc(Cl)cc3Cl)c3ccc(Cl)cc3Cl)c2)cc1 (stereo not shown) [calmidazolium]
IC50 ([3]; Homo sapiens, NCI-H358, 72 h, NCI-H358 3D spheroids, serum free, 3 days treatment, replicates N1, N2, read-out: IC50 values): 1300 nM
IC50 [3, 15]: 1300 nM
IC50 [3, 16]: 1290 nM
DSS3 BRET score [6, 17]: 4.1 and 3.4
DSS3 BRET score [6, 18]: 3.75
H-RasG12V BRET [6, 12]: 65.4602 and 65.6531 and 66.0593 and 64.447 and 71.623 and 67.855 and 69.3028 and 69.9269
H-RasG12V BRET ([6]; mean): 67.54
apoptotic cells (%) (MDA-MB-231 cells [8]; [14]): 46.8015% and 19.4293%
apoptotic cells (%) (MDA-MB-231 cells [8]; mean): 33.12%
normalized pERK/ERK ratio % ([2]; 2 h, trametinib 1 μM, AMG-510 1 μM, calmidazolium 20 μM, DT-061 20 μM, combination each 10 μM, fluphenazine mustard 20 μM, replicates N1-N3, listed as camidazolium): 79.2728% and 51.9352% and 71.8958%
IC50 [4, 19]: 1370 nM
IC50 [4, 20]: 830 nM and 1900 nM
IC50 [5, 21]: 1510 nM
IC50 [5, 10]: 1100 nM
IC50 [5, 11]: 1310 nM
DSS3 BRET score [7, 22]: 7.4 and 5.3 and 6.1
DSS3 BRET score [7, 23]: 6.27
K-RasG12V BRET [7, 13]: 56.1219 and 37.0972 and 36.7653 and 36.0615 and 56.3093 and 55.7392 and 55.8068 and 41.7975 and 44.4475 and 43.3047 and 43.8108 and 37.7034
K-RasG12V BRET ([7]; mean): 45.41

OCCN1CCN(CCCN2c3ccccc3Sc3ccc(C(F)(F)F)cc32)CC1 [fluphenazine]
2D monolayer DSS3 (HEK-293 EBNA cells; Mean): 9.5
2D monolayer DSS3 (HEK-293 EBNA cells; replicates N1-N3): 9.9 and 9.2 and 9.4
DSS3 BRET score [6, 17]: 0
DSS3 BRET score [6, 18]: 0
H-RasG12V BRET [6, 12]: 118.298 and 116.824 and 118.266 and 116.921 and 102.254 and 101.937 and 104.771 and 99.5349
H-RasG12V BRET ([6]; mean): 109.85
2D monolayer DSS3 (MDA-MB-231 cells [1]; Mean): 28.4
2D monolayer DSS3 (MDA-MB-231 cells [1]; replicates N1-N3): 26.6 and 29.8 and 28.8
2D monolayer DSS3 (MIA PaCa-2 cells; Mean): 46.37
2D monolayer DSS3 (MIA PaCa-2 cells; replicates N1-N3): 33.6 and 46.1 and 59.4
effect on the RasG12V-BRET signals (in words) ([7]; K-RasG12V and H-RasG12V biosensors): Neither the PP2A activator DT-061, nor Flu had an effect
DSS3 BRET score [7, 22]: 0
DSS3 BRET score [7, 23]: 0
K-RasG12V BRET [7, 13]: 116.984 and 104.752 and 101.237 and 99.6761 and 117.221 and 114.254 and 111.203 and 106.486 and 102.332 and 104.758 and 105.192 and 105.738
K-RasG12V BRET ([7]; mean): 107.49

CC(C)=C[C@H]1C[C@H](C)[C@]2(CC[C@]3(C)C[C@H]4[C@H](C(=O)C[C@@]4(C)O)/C(C=O)=C\C[C@H]32)O1 [ophiobolin A]
DSS3 BRET score [6, 17]: 7.5 and 2.2
DSS3 BRET score [6, 18]: 4.85
H-RasG12V BRET ([6]; mean): 87.26
DSS3 BRET score [7, 22]: 21.8 and 20.9
DSS3 BRET score [7, 23]: 21.35
K-RasG12V BRET ([7]; mean): 75.39

CC(=O)Nc1cccc(-n2c(=O)n(C3CC3)c(=O)c3c(Nc4ccc(I)cc4F)n(C)c(=O)c(C)c32)c1 [trametinib]
potency relative to Flu-M in MAPK-signaling (pERK) inhibition [2]: at least 20 times
normalized pERK/ERK ratio % [2, 9]: 32.0097% and 10.8438% and 18.176%
normalized pERK/ERK ratio % ([2]; same treatments, mean): 20.34%

CN1CCN(CCCN2c3ccccc3Sc3ccc(C(F)(F)F)cc32)CC1 [triflouperazine, trifluoperazine]
IC50 [3, 15]: 690 nM
IC50 [3, 16]: 390 nM and 980 nM
IC50 ([4]; Homo sapiens, MDA-MB-231, 72 h, MDA-MB-231 3D spheroids, serum free, 3 days treatment, replicates N1, N2, read-out: IC50 values): 430 nM
IC50 [4, 19]: 590 nM
IC50 [4, 20]: 740 nM
IC50 [5, 21]: 360 nM
IC50 [5, 10]: 250 nM
IC50 [5, 11]: 310 nM
